The text below walks through data of ChEMBL document CHEMBL1146133, “Synthesis of benz[d]indeno[1,2-b]pyran-5,11-diones: versatile intermediates for the design and synthesis of topoisomerase I inhibitors” (2006).

Common to all, as to assay type: functional
The subject of one assay is SF-268. The experiment in a line: Antiproliferative activity against human SF268 cell line.
The test system of a further assay is MDA-MB-435. As to the kind of experiment: Antiproliferative activity against human MDA-MB-435 cell line.
Another assay deals with HOP-62. As to the kind of experiment: Antiproliferative activity against human HOP62 cell line.
For a further assay, the system named is OVCAR-3. The experiment in a line: Antiproliferative activity against human OVCAR-3 cell line.
A further assay relates to DU-145. As to the kind of experiment: Antiproliferative activity against human DU145 cell line.
The subject of the next assay is SN12C. The experiment in a line: Antiproliferative activity against human SN12C cell line.
For another assay, the system named is UACC-62. The experiment in a line: Antiproliferative activity against human UACC62 cell line.
Another assay deals with HCT-116. The experiment in a line: Antiproliferative activity against human HCT116 cell line.

Molecules are shown by their SMILES.

By GI50 is commonly meant the concentration at which growth is held to half of that of the control. Read a high GI50 as less potent growth inhibition. For `O=C1c2ccccc2-c2c1c1ccccc1c(=O)n2CCN1CCOCC1`, growth with SF-268 was halved (GI50) at 85.1 µM.

Turning to `CN(C)CCCn1c2c(c3cc4c(cc3c1=O)OCO4)C(=O)c1ccccc1-2`, the GI50 in the assay on MDA-MB-435 is 3.02 µM; in the assay on HOP-62, less than 0.01 µM; with SF-268, 2.69 µM; with OVCAR-3, 2.63 µM; in the assay on DU-145, 2.04 µM; in the assay with SN12C, 0.023 µM. The GI50 with UACC-62 was 0.3 µM; in the assay with HCT-116 it was less than 0.01 µM.

Consider `O=C1c2ccccc2-c2c1c1ccccc1c(=O)n2CCCn1ccnc1`, for which the GI50 is 2.69 µM with HOP-62; 2.34 µM in the assay with SF-268; 1.66 µM in the assay with OVCAR-3; 1.41 µM in the assay on DU-145; 1.66 µM in the assay on SN12C; 0.79 µM in the assay with UACC-62. The compound also displayed a GI50 in the assay on HCT-116 of 1.41 µM.

With `O=C1c2ccccc2-c2c1c1ccc([N+](=O)[O-])cc1c(=O)n2CCN1CCOCC1`, the GI50 in the assay with MDA-MB-435 was greater than 100 µM; in the assay with HOP-62 it was 52.5 µM; in the assay on OVCAR-3, greater than 100 µM; in the assay on DU-145, 61.7 µM; in the assay with SN12C it was 58.9 µM; with UACC-62, 83.2 µM. For the same compound, in the assay with HCT-116, the 50% growth inhibitory concentration (GI50) is greater than 100 µM.

In the assay with SF-268, `O=C1c2ccccc2-c2c1c1ccccc1c(=O)n2CCNCCO` returned a GI50 of 1.65 µM.

As to `COc1cc2c3c(n(CCN4CCOCC4)c(=O)c2cc1OC)-c1ccccc1C3=O`, the concentration for 50% growth inhibition (GI50) in the assay with MDA-MB-435 is greater than 100 µM; with HOP-62 it was 89.1 µM; in the assay with SF-268, greater than 100 µM; in the assay with OVCAR-3, greater than 100 µM; in the assay on DU-145, greater than 100 µM; in the assay on SN12C it was greater than 100 µM. The figures for the 50% growth inhibitory concentration (GI50) with UACC-62 and in the assay on HCT-116 were 56.2 µM and 60.3 µM, respectively.

For the compound `COc1cc2c3c(oc(=O)c2cc1OC)-c1ccccc1C3=O`, the GI50 in the assay on MDA-MB-435, in the assay with SF-268, with OVCAR-3, in the assay with DU-145, with SN12C and in the assay on UACC-62 was 100 µM in each case. It took 100 µM to inhibit growth in the assay with HCT-116 by half (GI50).

In the case of `COc1cc2c(=O)oc3c(c2c(OC)c1OC)C(=O)c1ccccc1-3`, the 50% growth inhibitory concentration (GI50) was greater than 100 µM with MDA-MB-435; 53.7 µM in the assay with HOP-62; greater than 100 µM in the assay on SF-268; greater than 100 µM in the assay with OVCAR-3; greater than 100 µM with DU-145; greater than 100 µM in the assay on SN12C. Besides, the GI50 in the assay with UACC-62 and in the assay with HCT-116 was greater than 100 µM each time.

For `O=C1c2ccccc2-c2c1c1ccc([N+](=O)[O-])cc1c(=O)n2CCCn1ccnc1`, in the assay on SF-268, growth was halved (GI50) at 0.016 µM.

For the compound `O=C1c2ccccc2-c2oc(=O)c3cc4c(cc3c21)OCO4`, the 50% growth inhibitory concentration (GI50) in the assay on MDA-MB-435 was greater than 100 µM; in the assay on HOP-62, 18.2 µM; with SF-268, greater than 100 µM; in the assay on OVCAR-3, greater than 100 µM; in the assay on DU-145 it was greater than 100 µM; in the assay on SN12C, greater than 100 µM. The GI50 in the assay on UACC-62 came to 25.1 µM; in the assay on HCT-116, 47.9 µM.

Take `CN(C)CCCn1c2c(c3ccc([N+](=O)[O-])cc3c1=O)C(=O)c1ccccc1-2`: the GI50 was greater than 100 µM in the assay with MDA-MB-435; 25.7 µM in the assay on OVCAR-3; 4.17 µM in the assay on SN12C; 7.08 µM with UACC-62; 6.46 µM with HCT-116.

Consider `COc1cc2c3c(n(CCCN(C)C)c(=O)c2cc1OC)-c1ccccc1C3=O`, for which the 50% growth inhibitory concentration (GI50) worked out at 7.08 µM with MDA-MB-435; 6.17 µM in the assay on SF-268; 5.89 µM with OVCAR-3; 4.47 µM in the assay with DU-145; 11 µM with SN12C; 6.61 µM in the assay with UACC-62. In the assay with HCT-116, this compound gave a GI50 of 2.45 µM.

On to `O=C1c2ccccc2-c2oc(=O)c3cc([N+](=O)[O-])ccc3c21`, for which the concentration for 50% growth inhibition (GI50) with MDA-MB-435, with HOP-62, in the assay with SF-268, with OVCAR-3, in the assay with DU-145 and in the assay with SN12C was greater than 100 µM each time. Further, the GI50 in the assay with UACC-62 and in the assay on HCT-116 was greater than 100 µM throughout.

Turning to `COc1cc2c3c(n(CCCn4ccnc4)c(=O)c2cc1OC)-c1ccccc1C3=O`, the concentration for 50% growth inhibition (GI50) with SF-268 was less than 0.01 µM.

In the assay on SF-268, `CC[C@@]1(O)C(=O)OCc2c1cc1n(c2=O)Cc2cc3ccccc3nc2-1` [CAMPTOTHECIN] registered a GI50 of 0.01 µM.
